# Patent US8362012B2, “Benzoxazine benzimidazole derivative, a pharmaceutical composition comprising the same, and a use thereof” (Daewoong Pharmaceutical Co., Ltd., priority 2008, dated 2013)
# Target: T1, human vanilloid-1 (hVR-1) in hVR-1-HEK293 cell line (Homo sapiens, UniProt Q8NER1)
# T1 construct: expressed in transfected cells; host or cells: HEK293 Tet-on strain, doxycycline-induced
# Assay: Inhibitory effect on calcium influx via a vanilloid receptor (capsaicin-stimulated, Fluo-3/AM)
# Assay type: cell-based
# Settings: hVR-1-HEK293 cells, 1 μM of capsaicin, compounds 0.015˜2000 nM; read-out: I.A. (inhibitory activity), IC50 on intracellular calcium influx
# Protocol: The cell line can modulate the expression of VR-1, depending on whether doxycycline, a derivative of tetracycline, is present or not. […] Specifically, hVR-1-HEK293 cells were cultured in a T75 flask to about 80% confluency, separated from the flask by treating with trypsin solution, and then collected by centrifugation. The cells were suspended in a medium containing 1 μg/mL of doxycycline, and the resulting suspension was diluted to a concentration of 2˜4×10^5 cells/mL […], of the cell suspension was placed in each well of a 96-well black plate. The cells were cultured in 5% CO2 incubator at 37° C. for 2 days, and used for the following procedure. […] The cells prepared in 1) above were cultured at 37° C. for 90 min in a solution containing Fluo-3/AM, a fluorescent dye, as a calcium indicator so that the fluorescent dye was permeated into the cells. […] In order to stimulate calcium influx through a vanilloid receptor, the cells were treated with 1 μM of capsaicin. […] The obtained data were input to the Hill equation represented by the following formula I and the values were analyzed: Intracellular calcium influx= [(fluorescent intensity of experimental group−fluorescent intensity of background)/(fluorescent intensity of positive control−fluorescent intensity of background)]*100 [Formula I] The inhibitory activities were evaluated from the obtained intracellular calcium influx values according to the following criteria.
# T1 sequence (Q8NER1 whole entry): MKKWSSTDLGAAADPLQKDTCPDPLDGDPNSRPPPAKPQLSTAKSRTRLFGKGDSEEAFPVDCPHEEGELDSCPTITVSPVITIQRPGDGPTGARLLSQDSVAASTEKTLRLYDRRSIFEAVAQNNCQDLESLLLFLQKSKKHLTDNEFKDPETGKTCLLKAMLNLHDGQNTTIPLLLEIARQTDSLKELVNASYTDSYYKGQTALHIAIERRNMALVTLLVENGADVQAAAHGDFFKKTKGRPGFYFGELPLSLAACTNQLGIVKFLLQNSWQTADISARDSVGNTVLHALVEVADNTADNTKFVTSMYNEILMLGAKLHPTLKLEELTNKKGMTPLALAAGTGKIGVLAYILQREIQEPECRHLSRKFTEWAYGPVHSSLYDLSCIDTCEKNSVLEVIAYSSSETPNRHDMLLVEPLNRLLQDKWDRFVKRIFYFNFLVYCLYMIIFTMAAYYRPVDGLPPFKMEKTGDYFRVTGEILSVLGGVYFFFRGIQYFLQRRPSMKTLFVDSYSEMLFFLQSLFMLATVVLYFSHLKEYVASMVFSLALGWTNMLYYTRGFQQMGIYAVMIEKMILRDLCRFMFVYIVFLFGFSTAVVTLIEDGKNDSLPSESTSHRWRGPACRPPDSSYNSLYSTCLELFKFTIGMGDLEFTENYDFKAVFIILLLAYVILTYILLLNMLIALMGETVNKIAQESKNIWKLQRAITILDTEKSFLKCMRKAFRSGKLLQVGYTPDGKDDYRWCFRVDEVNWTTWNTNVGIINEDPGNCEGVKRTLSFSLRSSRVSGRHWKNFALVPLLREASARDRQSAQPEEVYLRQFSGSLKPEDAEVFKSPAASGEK
row,Compound,IC50
1,"CC(C)(C)c1ccc2nc(-c3cccc4c3OCCN4c3ncccc3Cl)[nH]c2c1 [Example 6, 8-(6-tert-butyl-1H-benzimidazol-2-yl)-4-(3-chloro-pyridin-2-yl)-3,4-dihydro-2H-benzo[1,4]oxazine]",101 to 500 nM
2,"CC(C)(C)c1ccc2nc(-c3cccc4c3OCCN4c3ncccc3C(F)(F)F)[nH]c2c1 [Example 7, 8-(6-tert-butyl-1H-benzimidazol-2-yl)-4-(3-trifluoromethyl-pyridin-2-yl)-3,4-dihydro-2H-benzo[1,4]oxazine]",> 1000 nM
3,"CC(C)(C)c1ccc2nc(-c3cccc4c3OCCN4c3ccc(C(F)(F)F)cn3)[nH]c2c1 [Example 8, 8-(6-tert-butyl-1H-benzimidazol-2-yl)-4-(5-trifluoromethyl-pyridin-2-yl)-3,4-dihydro-2H-benzo[1,4]oxazine]",101 to 500 nM
4,"CC(C)(C)c1ccc2nc(-c3cccc4c3OCCN4c3ncc(C(F)(F)F)cc3Cl)[nH]c2c1 [Example 9, 8-(6-tert-butyl-1H-benzimidazol-2-yl)-4-(3-chloro-5-trifluoromethyl-pyridin-2-yl)-3,4-dihydro-2H-benzo[1,4]oxazine]",101 to 500 nM
5,"CC(C)(C)c1ccc2[nH]c(-c3cccc4c3OCCN4c3ccccn3)nc2c1 [Example 12, 8-(5-tert-butyl-1H-benzimidazol-2-yl)-4-pyridin-2-yl-3,4-dihydro-2H-benzo[1,4]oxazine]",101 to 500 nM
6,"CC(C)(C)c1ccc2[nH]c(-c3cccc4c3OCCN4c3ccc(CO)cn3)nc2c1 [Example 15, 6-[8-(5-tert-butyl-1H-benzimidazol-2-yl)-2,3-dihydro-benzo[1,4]oxazin-4-yl]-pyridin-3-yl-methanol]",101 to 500 nM
7,"FC(F)(F)c1ccc2nc(-c3cccc4c3OCCN4c3ncccc3Cl)[nH]c2c1 [Example 16, 4-(3-chloro-pyridin-2-yl)-8-(6-trifluoromethyl-1H-benzimidazol-2-yl)-3,4-dihydro-2H-benzo[1,4]oxazine]",101 to 500 nM
8,"FC(F)(F)c1ccc2nc(-c3cccc4c3OCCN4c3ncccc3C(F)(F)F)[nH]c2c1 [Example 17, 8-(6-trifluoromethyl-1H-benzimidazol-2-yl)-4-(3-trifluoromethyl-pyridin-2-yl)-3,4-dihydro-2H-benzo[1,4]oxazine]",> 1000 nM
9,"Clc1cccnc1N1CCOc2c(-c3nc4ccc(Br)cc4[nH]3)cccc21 [Example 21, 8-(6-bromo-1H-benzimidazol-2-yl)-4-(3-chloro-pyridin-2-yl)-3,4-dihydro-2H-benzo[1,4]oxazine]",101 to 500 nM
10,"Clc1ccc2nc(-c3cccc4c3OCCN4c3ncccc3Cl)[nH]c2c1 [Example 22, 8-(6-chloro-1H-benzimidazol-2-yl)-4-(3-chloro-pyridin-2-yl)-3,4-dihydro-2H-benzo[1,4]oxazine]",> 1000 nM
11,"Cc1ccc(N2CCOc3c(-c4nc5ccc(Br)cc5[nH]4)cccc32)nc1 [Example 26, 8-(6-bromo-1H-benzimidazol-2-yl)-4-(5-methyl-pyridin-2-yl)-3,4-dihydro-2H-benzo[1,4]oxazine]",101 to 500 nM
12,"Cc1ccc(N2CCOc3c(-c4nc5cc(Cl)ccc5[nH]4)cccc32)nc1 [Example 27, 8-(5-chloro-1H-benzimidazol-2-yl)-4-(5-methyl-pyridin-2-yl)-3,4-dihydro-2H-benzo[1,4]oxazine]",101 to 500 nM
13,"Cc1ccc(N2CCOc3c(-c4nc5c(Cl)cc(C(F)(F)F)cc5[nH]4)cccc32)nc1 [Example 29, 8-(4-chloro-6-trifluoromethyl-1H-benzimidazol-2-yl)-4-(5-methyl-pyridin-2-yl)-3,4-dihydro-2H-benzo[1,4]oxazine]",101 to 500 nM
14,"Cc1ccc(N2CCOc3c(-c4nc5c(C(F)(F)F)cc(C(F)(F)F)cc5[nH]4)cccc32)nc1 [Example 30, 8-(4,6-bis-trifluoromethyl-1H-benzimidazol-2-yl)-4-(5-methyl-pyridin-2-yl)-3,4-dihydro-2H-benzo[1,4]oxazine]",101 to 500 nM
15,"Cc1ccc(N2CCOc3c(-c4nc5c(Br)cc(Br)cc5[nH]4)cccc32)nc1 [Example 32, 8-(4,6-dibromo-1H-benzimidazol-2-yl)-4-(5-methyl-pyridin-2-yl)-3,4-dihydro-2H-benzo[1,4]oxazine]",101 to 500 nM
16,"Cc1ccc(N2c3cccc(-c4nc5ccc(C#N)cc5[nH]4)c3OC[C@@H]2CO)nc1 [Example 56, (S)-2-(3-(hydroxymethyl)-4-(5-methyl-pyridin-2-yl)-3,4-dihydro-2H-benzo[b][1,4]oxazin-8-yl)-1H-benzo[d]imidazol-6-carbonitrile]",101 to 500 nM

# Further lines, results first:
row,IC50,Compound
1,< 20 nM,"Cc1ccc(N2CCOc3c(-c4nc5cc(C(C)(C)C)ccc5[nH]4)cccc32)nc1 [Example 10, 8-(5-tert-butyl-1H-benzimidazol-2-yl)-4-(5-methyl-pyridin-2-yl)-3,4-dihydro-2H-benzo[1,4]oxazine]"
2,20 to 100 nM,"CC(C)(C)c1ccc2[nH]c(-c3cccc4c3OCCN4c3ncc(Cl)cc3Cl)nc2c1 [Example 11, 8-(5-tert-butyl-1H-benzimidazol-2-yl)-4-(3,5-dichloro-pyridin-2-yl)-3,4-dihydro-2H-benzo[1,4]oxazine]"
3,20 to 100 nM,"CC(C)(C)c1ccc2[nH]c(-c3cccc4c3OCCN4c3ccc(Br)cn3)nc2c1 [Example 13, 4-(5-bromo-pyridin-2-yl)-8-(5-tert-butyl-1H-benzimidazol-2-yl)-3,4-dihydro-2H-benzo[1,4]oxazine]"
4,20 to 100 nM,"CC(C)(C)c1ccc2[nH]c(-c3cccc4c3OCCN4c3ccc(Cl)cn3)nc2c1 [Example 14, 8-(5-tert-butyl-1H-benzimidazol-2-yl)-4-(5-chloro-pyridin-2-yl)-3,4-dihydro-2H-benzo[1,4]oxazine]"
5,< 20 nM,"Cc1ccc(N2c3cccc(-c4nc5c(Br)cc(OC(F)(F)F)cc5[nH]4)c3OC[C@@H]2CO)nc1 [Example 54, [(S)-8-(4-bromo-6-trifluoromethoxy-1H-benzimidazol-2-yl)-4-(5-methyl-pyridine-2-yl)-3,4-dihydro-2H-benzo[1,4]oxazin-3-yl]-methanol]"
6,< 20 nM,"Cc1ccc(N2c3cccc(-c4nc5c(F)cc(F)cc5[nH]4)c3OC[C@@H]2CO)nc1 [Example 55, [(S)-8-(4,6-difluoro-1H-benzo[d]imidazol-2-yl)-4-(5-methyl-pyridin-2-yl)-3,4-dihydro-2H-benzo[b][1,4]oxazin-3-yl]-methanol]"
7,20 to 100 nM,"C=Cc1ccc(N2c3cccc(-c4nc5ccc(C(C)(C)C)cc5[nH]4)c3OC[C@@H]2CO)nc1 [Example 57, [(S)-8-(6-tert-butyl-1H-benzimidazol-2-yl)-4-(5-vinyl-pyridin-2-yl)-3,4-dihydro-2H-benzo[1,4]oxazin-3-yl]-methanol]"
8,20 to 100 nM,"C=Cc1ccc(N2c3cccc(-c4nc5ccc(C(F)(F)F)cc5[nH]4)c3OC[C@@H]2CO)nc1 [Example 58, [(S)-8-(6-trifluoromethyl-1H-benzimidazol-2-yl)-4-(5-vinyl-pyridin-2-yl)-3,4-dihydro-2H-benzo[1,4]oxazin-3-yl]-methanol]"
9,20 to 100 nM,"C=Cc1ccc(N2c3cccc(-c4nc5ccc(F)cc5[nH]4)c3OC[C@@H]2CO)nc1 [Example 61, [(S)-8-(6-fluoro-1H-benzimidazol-2-yl)-4-(5-vinyl-pyridin-2-yl)-3,4-dihydro-2H-benzo[1,4]oxazin-3-yl]-methanol]"
